Drawing on paper PMC8700221, “Long-Term Treatment with Atypical Antipsychotic Iloperidone Modulates Cytochrome P450 2D (CYP2D) Expression and Activity in the Liver and Brain via Different Mechanisms” (Cells, 2021), this text covers Km and Ki for two compounds.

Common to all, as to type: biochemical
Assay [1] relates to T1, CYP2D (rat brain microsomes).
T1 construct: gene Cyp2d4; native enzymes in pooled whole-brain microsomes of control male rats (n = 10); CYP2D4 named main brain form
Description: bufuralol […]'-hydroxylation in whole-brain microsomes, HPLC with fluorometric detection. To be noted: NADPH-generating system; 2 mg protein/mL; no inhibitor; CYP2D isoenzymes mixed.

Assay [2] concerns T2, CYP2D (rat liver microsomes).
T2 construct: gene Cyp2d1; native enzymes in pooled liver microsomes of control male rats (n = 10); CYP2D1 and CYP2D2 named most abundant in liver
Nature of the assay: bufuralol […]'-hydroxylation in liver microsomes, HPLC with fluorometric detection. To be noted: NADPH-generating system; 0.5 mg protein/mL; no inhibitor; CYP2D isoenzymes mixed. (In general: Microsomes from liver hold many membrane-bound enzymes, among them those of drug oxidation.)

The target in assay [3] is T1, CYP2D (rat brain microsomes). Description: bufuralol […]'-hydroxylation in whole-brain microsomes, HPLC with fluorometric detection, Dixon plot. To be noted: competitive; bufuralol 50, 100 and 200 µM; iloperidone 25-500 µM; 2 mg protein/mL; NADPH-generating system; CYP2D isoenzymes mixed.
The target of assay [4] is T2, CYP2D (rat liver microsomes). Nature of the assay: bufuralol […]'-hydroxylation in liver microsomes, HPLC with fluorometric detection, Dixon plot. As to conditions: competitive; bufuralol 5, 10 and 20 µM; iloperidone 1-250 µM; 0.5 mg protein/mL; NADPH-generating system; CYP2D isoenzymes mixed.

For `CCc1cccc2cc(C(O)CNC(C)(C)C)oc12` (stereo not shown) [bufuralol], the Km in assay [1] is 492 µM; in assay [2] it was 8.26 µM.
Regarding `COc1cc(C(C)=O)ccc1OCCCN1CCC(c2noc3cc(F)ccc23)CC1` [iloperidone], the values for the Ki in assay [3] and in assay [4] were 462 µM and 11.5 µM, respectively.

A word on the Km: it is the concentration of substrate that gives half-maximal velocity. By Ki is commonly meant a measure of affinity in units of concentration, obtained from inhibition or displacement.
